Measured values published in ChEMBL document CHEMBL1147900, “Immuno-stimulating properties of diosgenyl saponins isolated from Paris polyphylla” (Bioorg Med Chem Lett, 2007).
Active and inactive are the calls of the source. No cut-off for these calls is given here.

Tests used:
Type in all cases: functional, cell-based
RAW [1] = assay: Induction of respiratory burst in mouse RAW 264.7 cells at 10 nM assessed as superoxide anion production after 2 hrs by NBT test
RAW [2] = assay: Effect on NO production in mouse RAW 264.7 cells at 100 nM
RAW [3] = assay: Effect on phagocytic activity in mouse RAW 264.7 cells after 24 hrs
RAW [4] = assay: Effect on phagocytic activity in mouse RAW 264.7 cells at 10 uM after 24 hrs

Structure (SMILES) | Activity (RAW [1]) | Activity (RAW [2]) | Activity (RAW [3]) | Activity (RAW [4])
C[C@@H]1CC[C@@]2(OC1)O[C@H]1C[C@H]3[C@@H]4CC=C5C[C@@H](O)CC[C@]5(C)[C@H]4CC[C@]3(C)[C@H]1[C@@H]2C | inactive | inactive | Active | 
C[C@H]1CC[C@@]2(OC1)O[C@H]1C[C@H]3[C@@H]4CC=C5C[C@@H](O[C@@H]6O[C@@H](CO)[C@H](O[C@H]7O[C@H](C)[C@@H](O[C@H]8O[C@H](C)[C@@H](O)[C@H](O)[C@@H]8O)[C@H](O)[C@@H]7O)[C@@H](O)[C@@H]6O[C@@H]6O[C@@H](C)[C@@H](O)[C@H](O)[C@@H]6O)CC[C@]5(C)[C@H]4CC[C@]3(C)[C@H]1[C@@H]2C | Active | Active | Active | Active
